Laboratory results published in article PMC12430362, “Comparative Study of Ni(II) Complexes with Dithiocarbazate- and Thiosemicarbazone-Based Ligands: Synthesis, Crystal Structures, and Anticancer Activity” (Molecules, 2025).

Experiments:
Type in all cases: cell-based, human
[1] = test system: nontumoral lung (MRC-5) cell line; assay: MTT cytotoxicity assay, MRC-5; conditions: ± SD, 1.56-200 µM, nontumoral cells
Experimental: (§1) DMSO solutions (10^−3 M) of the complexes (1–4) were subjected to molar conductance measurements at room temperature over 48 h, and the observed values are presented in Table S8. […] A comparative cytotoxicity assay explored the differences between nickel(II) complexes derived from thiosemicarbazone and dithiocarbazate ligands. Additionally, we investigated the influence of the coligands triphenylphosphine and pyridine in the complexes. The effectiveness of the compounds in inhibiting cell viability was concentration- and time-dependent. The analysis involved varying concentrations between 1.56 and 200 µM over 48 h using an MTT assay, with untreated cells serving as the control. Table 5 presents the IC50 values for the free ligands, synthesized complexes, and cisplatin, which served as reference compounds in this study.
(§2) The cytotoxic activity of the synthesized compounds was evaluated against human cell lines, including breast cancer (MCF–7), cisplatin-resistant ovarian cancer (A2780cis), lung cancer (A549), and nontumor lung cells (MRC–5). The A549 and MRC-5 cell lines were cultured in Dulbecco’s Modified Eagle’s Medium (DMEM), while the MCF-7 and A2780cis cell lines were cultured in Roswell Park Memorial Institute (RPMI–1640). Both cultures were supplemented with 10% fetal bovine serum (FBS), penicillin (100 IU/mL), streptomycin ([…]), and L-glutamine (2 mM). The cells were grown as monolayers in disposable 25 cm^2 flasks and incubated at 37 °C in a humidified atmosphere containing 5% CO2.
(§3) The cytotoxicity activity of the compounds was assessed using a colorimetric MTT (3-(4,5-dimethylthiazol-2-yl)-2,5-diphenyltetrazolium bromide) assay. The cells were trypsinized, counted, and adjusted to the appropriate concentration and were seeded into 96-well plates at a density of 1.5 × 10^4 cells/well. […] The absorbance was measured at 570 nm using a Varioskan LUX Multimode Microplate Reader (VL000D0, Waltham, MA 02451, USA). […] The half-maximal inhibitory concentration (IC50) values were determined from dose–response curves using GraphPad Prism version 8 software.

[2] = test system: lung cancer (A549) cell line; assay: MTT cytotoxicity assay, A549; conditions: ± SD, 1.56-200 µM
Experimental: as §1, §2, §3

[3] = test system: cisplatin-resistant ovarian cancer (A2780cis) cell line; assay: MTT cytotoxicity assay, A2780cis; conditions: 48 h, ± SD, 1.56-200 µM
Experimental: as §1, §2, §3

[4] = test system: breast cancer (MCF-7) cell line; assay: MTT cytotoxicity assay, MCF-7; conditions: ± SD, 1.56-200 µM
Experimental: as §1, §2, §3

In the case of `N.N.[Cl][Pt][Cl]` [Cisplatin, cisplatin, reference compound], the IC50 ([1]; 48 h) is reported as 29.1 µM, the IC50 ([2]; 48 h) is reported as 11.5 µM and the IC50 [3] is reported as 37 µM. For the same molecule, the IC50 ([4]; 48 h) was 14 µM.

With `O=C(C/C(=N/NC(=S)Nc1ccccc1)C(F)(F)F)c1cccs1` [H2L^1, thenoyltrifluoroacetone–4–phenyl–3–thiosemicarbazone] the IC50 ([1]; Homo sapiens, MRC5, 48 h) was > 100 µM, the IC50 ([2]; Homo sapiens, A549, 48 h) was 51.4 µM and the IC50 ([3]; Homo sapiens, A2780cis) was 42.8 µM. The IC50 ([4]; Homo sapiens, MCF7, 48 h) was > 100 µM.

For `O=C(C/C(=N/NC(=S)SCc1ccccc1)C(F)(F)F)c1cccs1` [H2L^2, thenoyltrifluoroacetone–S–benzyldithiocarbazate], the IC50 ([1]; Homo sapiens, MRC5, 48 h) was > 100 µM, the IC50 ([2]; Homo sapiens, A549, 48 h) was > 100 µM and the IC50 ([3]; Homo sapiens, A2780cis) was 78.9 µM. The IC50 ([4]; Homo sapiens, MCF7, 48 h) was > 100 µM.
